Converted amounts (≈) assume the structure as drawn. Like-named read-outs stand apart in the source and are kept apart here.
How the values were obtained:
[1] = test system: Microsporum canis ATCC 10214; assay: agar-dilution streak-plate antimicrobial assay; format: cell-based; conditions: ATCC10214, read-out: Minimal inhibitory conc. (1)
Method in brief: (§1)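 Test solutions at 2.5 mg/ml serially diluted two-fold, then 1 ml mixed into 9 ml nutrient agar suited to bacteria or fungi. Plates streaked with overnight broth cultures or saline spore suspensions, then incubated. MIC (μg/ml) is the concentration giving complete growth inhibition by visual inspection.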

[2] = test system: Trichophyton mentagrophytes E 11; assay: agar-dilution streak-plate antimicrobial assay; format: cell-based; conditions: E11, read-out: Minimal inhibitory conc. (4)
Method in brief: as §1

[3] = test system: Microsporum gypseum ATCC 14683; assay: agar-dilution streak-plate antimicrobial assay; format: cell-based; conditions: Nannizzia gypsea, ATCC14683, read-out: Minimal inhibitory conc. (2)
Method in brief: as §1

Trichophyton rubrum E 97 = assay: agar-dilution streak-plate antimicrobial assay; format: cell-based; conditions: E97, read-out: Minimal inhibitory conc. (5)
Method in brief: as §1

[4] = test system: Trichophyton tonsurans NIH 662; assay: agar-dilution streak-plate antimicrobial assay; format: cell-based; conditions: NIH662, read-out: Minimal inhibitory conc. (3)
Method in brief: as §1

diastolic blood pressure = assay: Prostaglandin-like hypotensive activity in anesthetized rats (minimal dose for about 10 mm. decrease in diastolic blood pressure); format: in vivo, Male Wistar strain rats; conditions: Rattus norvegicus; intravenous; decrease of about 10 mm. in diastolic blood pressure
Method in brief: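 Male Wistar rats (~250 g), pentobarbital 30 mg./kg. i.v. and hexamethonium 2 mg./kg. i.v., iliac artery cannulated for blood pressure. Compounds in saline-Tween 80 given i.v. at 0.1–10.0 mg./kg.; value is the minimal dose giving ~10 mm. drop in diastolic pressure.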

gastric acid secretion = assay: Inhibition of basal Gastric Acid Secretion (Acute Gastric Fistula Rat); format: in vivo, Female Sprague-Dawley rats; conditions: 2 h, 10 mg./kg. intraduodenal, B: 120 minute collection
Method: Inhibition of basal gastric acid secretion was determined in the acute gastric fistula rat as follows. Female Sprague-Dawley rats (Charles River Laboratories) weighing 140-160 grams are fasted in individual cages for 18-24 hours. The rats are then lightly anesthetized with ether and their front teeth extracted to avoid destruction of the plastic cannula. A midline incision is then made and the stomach and duodenum exposed. A flanged polyvinyl tube is inserted into the fundic portion of the stomach and secured with a purse string suture line using 4-0 Mersilene. The rat is then dosed by injection of the compound into the duodenum (1.0 ml. per 100 gram body weight). After dosing, the abdominal wall and skin are closed using metal wound clips. The rat is replaced in a cage containing a longitudinal slit to allow the polyvinyl tube to hang freely. An 8 ml. plastic collecting tube is attached to the flanged cannula and hangs freely below the cage. The first 30 minute sample is discarded designating this time as zero. The collecting tube is attached again and samples removed at the end of 60 and 120 minutes. Those samples are referred to as "A" and "B" in the table. The hourly samples are then transferred to a 15 ml. centrifuge tube and centrifuged for 5-10 minutes. Total and sediment volume are then recorded with the supernatant volume being used as volume of secretion. A 1 ml. or less aliquot is then removed and placed in a 50 ml. beaker containing 10 ml. of distilled water. This sample is then titrated using 0.01N NaOH to pH 7.0 using a Beckman zeromatic pH meter. Volume, titratable acidity (meq/L) and total acid output (μ eq/hour) are recorded. Percent inhibition is determined by comparison with the appropriate control. Groups of three rats were used. All compounds are administered in vehicle (0.5% methocel, 0.4% Tween 80, saline) at a constant volume of 1 ml./100 gram rat. Samples were sonicated with care to prevent overheating.

[5] = test system: Staphylococcus aureus Rose ATCC 14154; assay: agar-dilution streak-plate antimicrobial assay; format: cell-based; conditions: ATCC14154, read-out: Minimal inhibitory conc. (7)
Method in brief: as §1

[6] = test system: Mycobacterium smegmatis ATCC 606; assay: agar-dilution streak-plate antimicrobial assay; format: cell-based; conditions: Mycolicibacterium smegmatis, ATCC606, read-out: Minimal inhibitory conc. (6)
Method in brief: as §1

[7] = test system: Streptococcus pyogenes C 203; assay: agar-dilution streak-plate antimicrobial assay; format: cell-based; conditions: C203, read-out: Minimal inhibitory conc. (8)
Method in brief: as §1

[8] = test system: dl-PGE1-induced contraction of gerbil colon; assay: Inhibition of dl-PGE1-Induced Contraction of Gerbil Colon (prostaglandin antagonist action); format: cell-based, gerbils (Meriones unguiculatus); conditions: Meriones unguiculatus, 1 min; sub-maximal challenge, 20 ng./ml. dl-PGE1; 50% inhibition of maximum response; read-out: ID50 vs. 20 ng. of PGE1/ml.
Method in brief: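 Ascending colon from male gerbils, held in De Jalon's solution at 37 °C under 95% O2/5% CO2 with 0.5 g resting tension, contraction recorded isometrically. 1 min compound exposure, then 1 min dl-PGE1 at 200 ng/ml (maximal) or 20 ng/ml (sub-maximal). Approximate ID50 taken from a concentration series against the preceding agonist-only cycle.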

[9] = test system: bronchospasms elicited by 5-hydroxytryptamine; assay: Bronchodilator Activity (Konzett Assay) against 5-hydroxytryptamine; format: in vivo, guinea pigs; conditions: Cavia porcellus; three logarithmic cumulative intravenous doses
Method in brief: (§2)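 Guinea pigs given intravenous spasmogen (5-hydroxytryptamine, histamine or acetylcholine) per Konzett procedure. ED50 derived from three logarithmic cumulative intravenous doses of test compound.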

[10] = test system: bronchospasms elicited by histamine; assay: Bronchodilator Activity (Konzett Assay) against histamine; format: in vivo, guinea pigs; conditions: Cavia porcellus; three logarithmic cumulative intravenous doses
Method in brief: as §2

[11] = test system: bronchospasms elicited by acetylcholine; assay: Bronchodilator Activity (Konzett Assay) against acetylcholine; format: in vivo, guinea pigs; conditions: Cavia porcellus; three logarithmic cumulative intravenous doses
Method in brief: as §2

For `CCCCCC/C=C/[C@@H]1CCC(=O)[C@H]1CC(=O)O` (relative stereo) [9-oxo-3,4,5,6,7-pentanor-13-trans-prostenoic acid], which MIC [1] is on record?
Its MIC is 250 µg/mL (≈ 991 µM).

And the MIC [2]?
The MIC was 250 µg/mL (≈ 991 µM).

What about the MIC [3] of the same compound?
The MIC was 250 µg/mL (≈ 991 µM).

What about the MIC (Trichophyton rubrum E 97) of the same compound?
The MIC was 250 µg/mL (≈ 991 µM).

What about the MIC [4] of the same compound?
Its MIC is 125 µg/mL (≈ 495 µM).

What about the minimal effective dose (diastolic blood pressure) of the same compound?
The minimal effective dose was 2 mg/kg.

And the inhibition in vivo at 10 mg/kg (gastric acid secretion; read-out: % Inhibition Total Acid Output)?
Its inhibition in vivo at 10 mg/kg is 64%.

And the inhibition in vivo at 10 mg/kg (gastric acid secretion; read-out: % Inhibition Total Acidity)?
The inhibition in vivo at 10 mg/kg was 48%.

Which MIC [5] does the source give for `CCCCCC/C=C/[C@H]1CCC(=O)[C@@H]1CCCCC(=O)O` (relative stereo) [9-oxo-6,7-dinor-13-trans-prostenoic acid] here?
The MIC was 250 µg/mL (≈ 849 µM).

What about the MIC [1] of the same compound?
Its MIC is 250 µg/mL (≈ 849 µM).

What about the MIC [2] of the same compound?
The MIC was 250 µg/mL (≈ 849 µM).

What about the MIC [3] of the same compound?
The MIC was 250 µg/mL (≈ 849 µM).

And the MIC (Trichophyton rubrum E 97)?
The MIC was 250 µg/mL (≈ 849 µM).

And the MIC [6]?
Its MIC is 250 µg/mL (≈ 849 µM).

And the MIC [4]?
Its MIC is 250 µg/mL (≈ 849 µM).

What about the MIC [7] of the same compound?
Its MIC is 250 µg/mL (≈ 849 µM).

And the minimal effective dose (diastolic blood pressure)?
Its minimal effective dose is 2 mg/kg.

What about the IC50 [8] of the same compound?
The IC50 was 10 to 20 µg/mL (≈ 34 to 67.9 µM).

How did the MIC [5] turn out when `CCCCCC/C=C/[C@@H]1CCC(=O)[C@H]1CCCCCCC(=O)OCCN(C)C` (relative stereo) [β-dimethylaminoethyl 9-oxo-13-trans-prostenoate] was run?
The MIC was 50 µg/mL (≈ 127 µM).

What about the MIC [1] of the same compound?
The MIC was 250 µg/mL (≈ 635 µM).

And the MIC [6]?
The MIC was 10 µg/mL (≈ 25.4 µM).

And the MIC [4]?
The MIC was 250 µg/mL (≈ 635 µM).

And the MIC [7]?
The MIC was 10 µg/mL (≈ 25.4 µM).

What about the minimal effective dose (diastolic blood pressure) of the same compound?
Its minimal effective dose is 0.5 to 2 mg/kg.

Which results are given for `CCCCCCC=CC1CCC(O)C1CCCCC(=O)O` (stereo not drawn) [9-hydroxy-6,7-dinor-13-trans-prostenoic acid]?
MIC [5]: 250 µg/mL (≈ 843 µM); MIC [1]: 250 µg/mL (≈ 843 µM); MIC [2]: 62 µg/mL (≈ 209 µM); MIC [3]: 62 µg/mL (≈ 209 µM); MIC (Trichophyton rubrum E 97): 250 µg/mL (≈ 843 µM); MIC [6]: 62 µg/mL (≈ 209 µM); MIC [4]: 62 µg/mL (≈ 209 µM); MIC [7]: 62 µg/mL (≈ 209 µM); ED50 [9]: > 10 mg/kg; minimal effective dose (diastolic blood pressure): 2 mg/kg; ED50 [10]: 6.06 mg/kg; IC50 [8]: 10 to 12 µg/mL (≈ 33.7 to 40.5 µM); ED50 [11]: > 10 mg/kg

How did the MIC [5] turn out when `CCCCCC/C=C/[C@H]1CCC(O)[C@@H]1CCCCCCC(=O)O` (stereo partly drawn) [9-hydroxy-13-trans-prostenoic acid, 9α- and 9β-hydroxy-13-trans-prostenoic acid] was run?
Its MIC is 50 µg/mL (≈ 154 µM).

And the MIC [1]?
The MIC was 50 µg/mL (≈ 154 µM).

And the MIC [2]?
Its MIC is 50 µg/mL (≈ 154 µM).

And the MIC [3]?
Its MIC is 25 µg/mL (≈ 77 µM).

And the MIC [6]?
The MIC was 25 µg/mL (≈ 77 µM).

And the MIC [4]?
The MIC was 50 µg/mL (≈ 154 µM).

What about the MIC [7] of the same compound?
The MIC was 25 µg/mL (≈ 77 µM).

And the minimal effective dose (diastolic blood pressure)?
Its minimal effective dose is 2 mg/kg.

What does the source list for `CC(C)CCC=CC1CCC(O)C1CCCCCCC(=O)O` (stereo not drawn) [9-hydroxy-17-methyl-18,19-dinor-13-trans-prostenoic acid]?
MIC [5]: 125 µg/mL (≈ 403 µM); MIC [2]: 62 µg/mL (≈ 200 µM); MIC [3]: 62 µg/mL (≈ 200 µM); MIC (Trichophyton rubrum E 97): 250 µg/mL (≈ 805 µM); MIC [6]: 62 µg/mL (≈ 200 µM); MIC [4]: 62 µg/mL (≈ 200 µM); MIC [7]: 25 µg/mL (≈ 80.5 µM); minimal effective dose (diastolic blood pressure): 0.2 to 2 mg/kg; IC50 [8]: 5 to 10 µg/mL (≈ 16.1 to 32.2 µM)

From patent US4044043A, “Derivatives of 9-oxo-13-trans-prostenoic acid esters” (American Cyanamid Company, priority 1975, dated 1977)
